Test results reported in patent US4480118A, “Carboxylic acid ester and an insecticidal and/or acaricidal composition containing the same” (priority 1981, dated 1984).
In brackets after ≈: the same amount, converted by molar mass. Like-named read-outs stand apart in the source and are kept apart here.

Columns and labels:
[1] = tested on: housefly; test: Insecticidal activity against housefly (Filter paper bait and contact method); assay type: in vivo; conditions: Musca domestica
Procedure: Each 20 parts of the present compounds No. 1 to No. 29, 10 parts of an emulsifier (Sorpol 3005X; trademark for Toho Chemical Co.) and 70 parts of xylene are thoroughly mixed by stirring to obtain an emulsifiable concentrate of each compound.
A piece of filter paper, 5.5 cm in diameter, was laid on the bottom of a polyethylene cup of the identical inner diameter. An emulsifiable concentrate prepared in the same manner as in Preparation Example 2 was diluted with water. To the filter paper, was added dropwise 0.7 ml of the diluted sample (500 ppm in concentration). Sucrose (30 mg) was placed on the filter paper to serve as bait. Ten adult female houseflies were released into the cup, closed with a cover, and observed for the number of dead and alive insects after 48 hours to calculate the mortality (2 replications).

[2] = tested on: tobacco cutworm; test: Insecticidal activity against tobacco cutworm; assay type: in vivo; conditions: 24 h
Procedure: An artificial diet (15 g) for tobacco cutworm was wet with 2 ml of the prescribed aqueous dilution of an emulsifiable concentrate obtained in Preparation Example 2 or of that obtained from reference compounds. The diet thus treated was placed in a polyethylene cup of 11 cm in diameter.

[3] = tested on: housefly; test: Activity of oil spray against adult housefly (glass chamber); assay type: in vivo; conditions: oil spray 0.5 ml, 10 minutes exposure; for mortality, House fly: observed on the following day, 1440 min
Procedure: (§1) 0.1 Part of each compound Nos. 10, 12, 15, 17, 18, 19, 22, 23 and 29 of this invention is dissolved in deodorized kerosene and made up to 100 parts with kerosene to obtain an oil spray.
(§2) Ten adult houseflies and ten adult female northern house mosquitos were released in a glass chamber, 70×70×70 cm in size. An oil spray preparation (0.5 ml) obtained in Preparation Example 1 was sprayed inside the chamber and the insects were exposed to the descending mist for 10 minutes, during which time the number of knocked-down insects was counted at predetermined time intervals to determine the 50% knockdown time (KT50). On the following day, the dead and alive insects were observed.

[4] = tested on: northern house mosquito; test: Activity of oil spray against adult female northern house mosquito (glass chamber); assay type: in vivo
Procedure: as §1, §2

[5] = tested on: green rice leafhopper; test: Insecticidal activity against green rice leafhopper; conditions: Nephotettix cincticeps, 24 h
[6] = tested on: housefly; test: Insecticidal activity against housefly (Topical application method); assay type: in vivo; conditions: dorsal thorax, adult female, 24 hours
Procedure: The present compounds and the reference compounds were diluted with acetone to prescribed concentrations. Each 0.5 μl of the diluted samples was applied topically with a microsyringe onto the dorsal thorax of an adult female housefly. The flies were fed and observed for the number of dead and alive insects after 24 hours. LD50 (median lethal dose) was calculated from the mortalities at each dosage by probit method.

[7] = read-out: LC50 (median lethal concentration)
[8] = oil spray 0.5 ml, 10 minutes exposure
[9] = oil spray 0.5 ml, 10 minutes exposure, observed on the following day, 1440 min
[10] = read-out: Percent mortality days after spraying: 0
[11] = 500 ppm, 48 hours, adult female houseflies, read-out: Mortality
[12] = northern house mosquito, in vivo, 24 h

**Q.** How did the mortality at 500 ppm ([1]; 48 h) turn out when `CC1(C)C(C(=O)OC(C#N)c2cccc(Oc3ccccc3)c2)C12Cc1ccccc12` (stereo not drawn) [Compound 19] was run?
**A.** Its mortality at 500 ppm is 100%.

**Q.** What about the LC50 [2, 7] of the same compound?
**A.** Its LC50 is 5 µg/mL (≈ 12.2 µM).

**Q.** And the “KT50 (50% knockdown time), House fly” value [3]?
**A.** The value was 600 s.

**Q.** What about the “mortality, House fly” value [3] of the same compound?
**A.** Its value is 80%.

**Q.** What about the “KT50 (50% knockdown time), Northern house mosquito” value [4, 8] of the same compound?
**A.** Its value is 492 s.

**Q.** What about the “mortality, Northern house mosquito” value [4, 9] of the same compound?
**A.** The value was 100%.

**Q.** With `CC1(C)C(C(=O)OC(C#N)c2ccc(F)c(Oc3ccccc3)c2)C12Cc1ccccc12` (stereo not drawn) [Compound 20] as the compound, how does the mortality at 500 ppm ([1]; 48 h) read?
**A.** The mortality at 500 ppm was 100%.

**Q.** What about the mortality at 50 ppm [5, 10] of the same compound?
**A.** The mortality at 50 ppm was 100%.

**Q.** And the mortality at 50 ppm ([5]; read-out: Percent mortality days after spraying: 3)?
**A.** The mortality at 50 ppm was 100%.

**Q.** And the mortality at 50 ppm ([5]; read-out: Percent mortality days after spraying: 7)?
**A.** The mortality at 50 ppm was 90%.

**Q.** `CC1(C)C(C(=O)OCc2cccc(Oc3ccccc3)c2)C12Cc1ccccc1C2` (stereo not drawn) [Compound 21] was tested. Which mortality at 500 ppm [1, 11] did it give?
**A.** The mortality at 500 ppm was 100%.

**Q.** What does the source list for `C#CCN1CC(=O)N(COC(=O)C2C(C)(C)C23Cc2ccccc2C3)C1=O` (stereo not drawn) [Compound 22]?
**A.** mortality at 500 ppm [1, 11]: 100%; KT50 (50% knockdown time), House fly [3]: 80 s; mortality, House fly [3]: 90%; mortality, Northern house mosquito [4, 12]: 10%; KT50 (50% knockdown time), Northern house mosquito [4, 8]: 344 s

**Q.** For `C#CCC=C(C)C(C#C)OC(=O)C1C(C)(C)C12Cc1ccccc1C2` (stereo not drawn) [Compound 23], which mortality at 500 ppm [1, 11] is on record?
**A.** The mortality at 500 ppm was 100%.

**Q.** And the “LD50 (median lethal dose)” value [6]?
**A.** The value was 0.045 μg/female.

**Q.** What about the “KT50 (50% knockdown time), House fly” value [3] of the same compound?
**A.** Its value is 388 s.

**Q.** What about the “mortality, House fly” value [3] of the same compound?
**A.** Its value is 60%.

**Q.** And the “mortality, Northern house mosquito” value [4, 12]?
**A.** The value was 70%.

**Q.** What about the “KT50 (50% knockdown time), Northern house mosquito” value [4, 8] of the same compound?
**A.** Its value is 360 s.

**Q.** Which mortality at 500 ppm [1, 11] does the source give for `C#CC(C#C)OC(=O)C1C(C)(C)C12Cc1ccccc1C2` (stereo not drawn) [Compound 24] here?
**A.** The mortality at 500 ppm was 100%.

**Q.** How did the mortality at 500 ppm [1, 11] turn out when `CC1(C)C(C(=O)OCC=C(Cl)Cc2ccccc2)C12Cc1ccccc1C2` (stereo not drawn) [Compound 25] was run?
**A.** Its mortality at 500 ppm is 100%.

**Q.** What about the LC50 ([2]; read-out: LC50 (median lethal concentration), treated artificial diet, third-instar larvae, 24 hours) of the same compound?
**A.** The LC50 was 4 µg/mL (≈ 10.5 µM).

**Q.** With `C=CCc1cccc2c1CCC2OC(=O)C1C(C)(C)C12Cc1ccc(F)cc1C2` (stereo not drawn) [Compound 26] as the compound, how does the mortality at 500 ppm [1, 11] read?
**A.** The mortality at 500 ppm was 100%.

**Q.** For `CC1(C)C(C(=O)OCc2c(Cl)c(Cl)c(Cl)c(Cl)c2Cl)C12Cc1ccccc1C2` (stereo not drawn) [Compound 28], which mortality at 500 ppm [1, 11] is on record?
**A.** Its mortality at 500 ppm is 100%.

**Q.** And the LC50 ([2]; treated artificial diet, third-instar larvae, 24 hours, read-out: LC50 (median lethal concentration))?
**A.** Its LC50 is 8.7 µg/mL (≈ 18.2 µM).

**Q.** `CC1(C)C(C(=O)OC2C=C(Cc3ccccc3)C(=O)C2)C12Cc1ccccc1C2` (stereo not drawn) [Compound 29] was tested. Which mortality at 500 ppm [1, 11] did it give?
**A.** Its mortality at 500 ppm is 100%.

**Q.** And the “KT50 (50% knockdown time), House fly” value [3]?
**A.** Its value is 298 s.

**Q.** And the “mortality, House fly” value [3]?
**A.** The value was 40%.

**Q.** What about the “mortality, Northern house mosquito” value [4, 12] of the same compound?
**A.** Its value is 70%.

**Q.** What about the “KT50 (50% knockdown time), Northern house mosquito” value [4, 8] of the same compound?
**A.** The value was 296 s.

**Q.** `CNC(=O)Oc1cccc2ccccc12` [NAC, 1naphthyl N--methylcarbamate, reference compound] was tested. Which mortality at 250 ppm [5, 10] did it give?
**A.** The mortality at 250 ppm was 50%.

**Q.** `CC(C)=CC1C(C(=O)OCc2cccc(Oc3ccccc3)c2)C1(C)C` (stereo not drawn) [drawing 58, reference compound] was tested. Which “LD50 (median lethal dose)” value [6] did it give?
**A.** Its value is 0.26 μg/female.

**Q.** With `CC1(C)C(C(=O)OC(C#N)c2cccc(Oc3ccccc3)c2)C12C=Cc1ccccc12` (stereo not drawn) [drawing 61, reference compound] as the compound, how does the “LD50 (median lethal dose)” value [6] read?
**A.** Its value is 0.16 μg/female.

**Q.** Which LC50 [2, 7] does the source give for `CC(C)=CC1C(C(=O)OCc2cccc(Oc3ccccc3)c2)C1(C)C` (stereo not drawn) [drawing 62, reference compound] here?
**A.** Its LC50 is 24 µg/mL (≈ 68.5 µM).

**Q.** How did the LC50 [2, 7] turn out when `CC1(C)C(C(=O)OC(C#N)c2cccc(Oc3ccccc3)c2)C12C=Cc1ccccc12` (stereo not drawn) [drawing 63, reference compound] was run?
**A.** Its LC50 is 46.1 µg/mL (≈ 109 µM).

**Q.** Which “KT50 (50% knockdown time), House fly” value [3] does the source give for `CC1(C)C(C(=O)OC(C#N)c2cccc(Oc3ccccc3)c2)C12C=Cc1ccccc12` (stereo not drawn) [drawing 64, reference compound] here?
**A.** The value was > 600 s.

**Q.** And the “KT50 (50% knockdown time), Northern house mosquito” value [4, 8]?
**A.** Its value is 600 s.

**Q.** What about the “mortality, Northern house mosquito” value [4, 9] of the same compound?
**A.** The value was 50%.

**Q.** For `CC(C)=CC1C(C(=O)OC(C#N)c2cccc(Oc3ccccc3)c2)C1(C)C` (stereo not drawn) [reference compound], which “LD50 (median lethal dose)” value [6] is on record?
**A.** The value was 0.079 μg/female.
